According to article PMC10093845, “Inhibitory Activities of Samples on Tyrosinases Were Affected by Enzyme Species and Sample Addition Methods” (International Journal of Molecular Sciences, 2023):
Like-named read-outs stand apart in the source and are kept apart here. Values belong to the compound of their own block, whether it stands above or below them.

How the values were obtained:
[1] = tested on: ATYR (crude TYR extracted from apple); test: ATYR indirectly inhibitory activity (apple slices soaked, then enzyme extracted); settings: apple slices soaked in 1 mM for 10 min; water 0 ± 4% as negative control; negative = promotion
Method: The preparation of fresh-cut apple slices was the same as in Section 4.4. The preparation of crude ATYR was carried out by reference and slightly adjusted. […] Finally, these apple slices were used to extract ATYR. […] After the supernatant was divided, it was quick-frozen with liquid nitrogen, and then stored in the refrigerator at −80 °C. The supernatant was used for ATYR activity analysis. Apple slices, immersing in various test solutions for 10 min, were used to extract crude ATYR solution. […] The control group containing only ATYR (blank control and sample control) was set for synchronous detection to exclude background interference. With negative control as the reference, the indirectly inhibitory activity of ATYR was calculated in the same way as in Section 4.2.

B16F10 cells [2] = settings: previous studies; cited from earlier work
[3] = molecular target: T1, BTYR (intracellular TYR of B16F10 cells) (Mus musculus, UniProt P11344); test: BTYR indirectly inhibitory activity in cells cultured by compounds; format: cell-based, murine
T1 construct: The lysates, called BTYR, were centrifuged at 12,000 rpm for 10 min at 4 °C; endogenous in cells; host or cells: B16F10 murine melanoma cells
T1 sequence (P11344 19-533): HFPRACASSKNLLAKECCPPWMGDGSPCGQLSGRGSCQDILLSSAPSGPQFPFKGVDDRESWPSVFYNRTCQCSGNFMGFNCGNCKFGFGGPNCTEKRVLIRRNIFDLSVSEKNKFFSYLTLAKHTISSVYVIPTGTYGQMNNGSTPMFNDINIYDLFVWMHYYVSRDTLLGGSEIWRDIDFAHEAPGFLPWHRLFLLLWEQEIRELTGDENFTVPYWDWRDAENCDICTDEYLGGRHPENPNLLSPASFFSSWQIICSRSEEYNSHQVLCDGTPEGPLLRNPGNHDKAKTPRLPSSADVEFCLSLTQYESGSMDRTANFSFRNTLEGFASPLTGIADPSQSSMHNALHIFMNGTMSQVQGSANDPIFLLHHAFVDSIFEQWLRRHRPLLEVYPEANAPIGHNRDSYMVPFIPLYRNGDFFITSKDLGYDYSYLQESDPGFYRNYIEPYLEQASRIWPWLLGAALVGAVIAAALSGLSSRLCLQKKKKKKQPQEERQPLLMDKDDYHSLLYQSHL
Method: Referring to our previous methods. In short, B16F10 murine melanoma cells from Stem Cell Bank (Chinese Academy of Sciences, Shanghai, China) were cultured in DMEM supplemented with 10% FBS in a humidified atmosphere of 5% CO2 at 37 °C.
The BTYR indirectly inhibitory activity was assayed according to our previous procedure with slight modification. Cells were cultured by complete medium containing compounds for 48 h and lysed by 120 μL of lysis buffer to obtain crude BTYR extract. […] The molarities of EGCG were 25, 50, 100, 125, 150, 175 and 200 μM. The treatment group without samples was negative control.
In a reaction system of 100 μL, 20 μL of BTYR was mixed with 60 μL of 8 mM L-DOPA (the remaining volume was supplemented with 20 mM pH 6.8 PBS), and immediately placed at 475 nm for dynamic detection for 30 min. The absorbance was measured once per minute. The control group containing only BTYR (blank control and sample control) was set for synchronous detection to exclude background interference.
With negative control as the reference, the indirectly inhibitory activity of BTYR was calculated in the same way as in Section 4.2.

B16F10 cells [4] = test: Intracellular melanin content; format: cell-based, murine; settings: 100 μg/mL, α-MSH stimulated B16F10 cells, 48 h
Method: Measurement of intracellular melanin content was determined according to our previous procedure. Briefly, Cells were cultured by complete medium containing compounds for 48 h. Then, intracellular melanin was extracted by 1 M NaOH containing 10% DMSO. The absorbance of the dissolved melanin was obtained using a microplate reader at 405 nm. The melanin content of each treatment group was calculated with the negative control group as reference.

B16F10 cells [5] = test: Cell viability (CCK-8); format: cell-based, murine
Method: (§1) Referring to our previous methods. […] Measurement of cell viability was determined according to our previous procedure. In brief, cells were seeded into 96-well plates at a density of 1 × 10^4 cells/well and incubated for 24 h. Then, the culture medium was replaced with complete medium containing compound and further incubated at 37 °C for 48 h. After rinsing once with D-PBS, 100 µL DMEM containing 10% CCK-8 was added to each well. Followed by another 1 h incubation, the absorbance at 450 nm was measured. […] The cell viability was expressed as a percentage of the control.

MTYR (mushroom TYR) [6] = molecular target: T2, MTYR (mushroom TYR) (Agaricus bisporus, UniProt C7FF04); test: Kinetic analysis of MTYR (Lineweaver-Burk); format: biochemical; settings: L-DOPA substrate
T2 sequence (C7FF04 1-392): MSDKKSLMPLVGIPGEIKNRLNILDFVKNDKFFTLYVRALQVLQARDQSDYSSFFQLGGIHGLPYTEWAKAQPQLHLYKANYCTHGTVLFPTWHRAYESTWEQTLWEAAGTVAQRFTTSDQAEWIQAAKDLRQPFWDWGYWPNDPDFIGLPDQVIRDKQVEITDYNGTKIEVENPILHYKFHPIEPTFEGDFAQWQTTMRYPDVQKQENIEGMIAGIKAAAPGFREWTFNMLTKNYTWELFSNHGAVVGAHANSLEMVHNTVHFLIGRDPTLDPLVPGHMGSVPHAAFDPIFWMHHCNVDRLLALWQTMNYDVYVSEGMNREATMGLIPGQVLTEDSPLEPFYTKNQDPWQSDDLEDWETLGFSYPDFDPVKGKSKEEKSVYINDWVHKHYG
T2 sequence (G1K3P4 1-150 partner): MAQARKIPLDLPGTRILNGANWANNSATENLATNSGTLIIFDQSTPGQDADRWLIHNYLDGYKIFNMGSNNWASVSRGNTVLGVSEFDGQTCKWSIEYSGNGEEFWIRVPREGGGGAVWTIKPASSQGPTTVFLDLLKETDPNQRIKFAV
Method: The experimental method was the same as Section 4.8, except for the substrate concentration and compound concentration. A series of experiments were performed to determine the type of inhibition.
The molarities of L-DOPA were 0.0625, 0.25, 1, 4 and 8 mM. […] The Km and Vmax of MTYR were determined by the Michaelis–Menten equation. The Lineweaver–Burk plot was used to display the data. Secondary replot of Lineweaver–Burk plot or intercept was used to display inhibition constant (Ki) and α.

[7] = molecular target: T3, BTYR (TYR crude enzyme extract from B16F10 cells) (Mus musculus, UniProt P11344); test: BTYR directly inhibitory activity (TYR extraction followed by sample treatment, non-cellular system); format: biochemical, murine
T3 construct: The lysates, called BTYR, were centrifuged at 12,000 rpm for 10 min at 4 °C; endogenous in cells; host or cells: B16F10 murine melanoma cells
T3 sequence (P11344 19-533): T1 sequence (P11344 19-533)
Method: B16F10 cells at the exponential phase in 10 cm^2 cell culture dish were washed with D-PBS two times and incubated for 30 min at −20 °C in 1.16 mL of lysis buffer. The lysates, called BTYR, were centrifuged at 12,000 rpm for 10 min at 4 °C.
The reaction system in 96-well plate was 100 μL. 20 μL of BTYR was mixed with 20 μL compounds and incubated at 25 °C for 10 min, then 60 μL of 8 mM L-DOPA was added to start the reaction. A Synergy H1 microplate reader (BioTek Instruments, Inc., Winooski, VT, USA) was used to dynamically monitor the optical densities at 475 nm. Absorbance was measured every minute and sustained 30 min. The initial velocity (v0) of each reaction was represented by the slope of the initial linear range of the progress curve, and was used to calculate the relative enzyme activity of each treatment [16].
BTYR directly inhibitory activity compared to negative control could be expressed by following formula [16]. Δsample = sample − sample control, Δcontrol = negative control − blank control(1) kΔsample = (Δsamplet1 − Δsamplet0)/(t1 − t0), kΔcontrol = (Δcontrolt1 − Δcontrolt0)/(t1 − t0)(2) (3) BTYR direct inhibition %=1−kΔsample/kΔcontrol×100 […]

[8] = tested on: ATYR (crude TYR extracted from apple); test: ATYR directly inhibitory activity; format: biochemical; settings: for IC50: sample in direct contact with ATYR, kojic acid inhibits only at high concentration (800–4000 µM)
Method: The preparation of fresh-cut apple slices was the same as in Section 4.4. The preparation of crude ATYR was carried out by reference and slightly adjusted. […] Finally, these apple slices were used to extract ATYR. […] After the supernatant was divided, it was quick-frozen with liquid nitrogen, and then stored in the refrigerator at −80 °C. The supernatant was used for ATYR activity analysis. In a reaction system of 200 μL, 40 µL ATYR was mixed with 40 µL corresponding compound in 96-well plates. After incubated at 25 °C for 10 min, L-DOPA (120 µL, 8 mM) was added to each well as a substrate. Once the substrate was added in reaction system, the formation of dopachrome was immediately measured at 475 nm for 30 min at 1 min intervals. […] The group setting and the calculation of ATYR directly inhibitory activity were the same as in Section 4.2.

MTYR (mushroom TYR) [9] = molecular target: T2, MTYR (mushroom TYR); test: MTYR directly inhibitory activity; format: biochemical
Method: The MTYR directly inhibitory activity was assayed according to our previous procedure. Briefly, the reaction media was 200 µL in 96-well plates. MTYR (40 µL, 30 U/mL) in PBS (20 mM, pH 6.8) was incubated with the corresponding compound (40 µL) at 25 °C for 10 min. Then, L-DOPA ([…], 8 mM) was added to each well as a substrate. The other steps and the calculation of MTYR directly inhibitory activity were the same as above method in Section 4.2.

BTYR mRNA = test: qPCR analysis of TYR gene; format: cell-based, murine; settings: 100 μg/mL, 24 h, α-MSH stimulated
Method: Measurement of mRNA expression of TYR was determined according to our previous procedure. […] Total RNAs prepared were followed and qPCR analysis of TYR were carried on with β-actin as an internal control.

MTYR = settings: cited from earlier work
HMV-II = tested on: HMV-II; design: method as in PMID 15056856; settings: concentration lower than 1 mM; cited from earlier work
Cell viability (CCK-8) = format: cell-based, murine; settings: mouse, B16F10 melanoma cells, 48 h
Method: as §1

HTYR = settings: cited from earlier work

SMILES: O=C(O[C@@H]1Cc2c(O)cc(O)cc2O[C@@H]1c1cc(O)c(O)c(O)c1)c1cc(O)c(O)c(O)c1 [EGCG, Epigallocatechin gallate]
ATYR indirectly inhibitory activity [1]: −7 ± 7%
concentration significantly reducing melanin content of B16F10 cells in a dose-dependent manner (B16F10 cells [2]): 55 to 218 µM
intracellular BTYR activity ([3]; 100 μg/mL, α-MSH stimulated B16F10 cells, 48 h): inhibit intracellular BTYR activity
IC50 ([3]; cells cultured with compound 48 h, then TYR extracted): 195 ± 3 µM
intracellular melanin content (B16F10 cells [4]): significantly reduce
Cell Viability (%) (B16F10 cells [5]; 25 µM, 48 h): 100 ± 2%
Cell Viability (%) (B16F10 cells [5]; 50 µM, 48 h): 98 ± 2%
Cell Viability (%) (B16F10 cells [5]; 100 µM, 48 h): 95 ± 6%
Cell Viability (%) (B16F10 cells [5]; 200 µM, 48 h): 106 ± 1%
Cell Viability (%) (B16F10 cells [5]; 400 µM, 48 h): 66 ± 4%
Cell Viability (%) (B16F10 cells [5]; 600 µM, 48 h): 4 ± 0%
Cell Viability (%) (B16F10 cells [5]; 800 µM, 48 h): 2 ± 1%
Cell Viability (%) (B16F10 cells [5]; 1000 µM, 48 h): 1 ± 1%
Cell Viability (%) (B16F10 cells [5]; 1200 µM, 48 h): −1 ± 0%
Inhibition type (MTYR (mushroom TYR) [6]): competitive
Km (change with increasing compound molarity) (MTYR (mushroom TYR) [6]): increasing
Vmax (change with increasing compound molarity) (MTYR (mushroom TYR) [6]): constant
Ki (MTYR (mushroom TYR) [6]; replot of Lineweaver–Burk slopes): 170 µM
catalytic activity of BTYR in non-cellular system ([7]; 100 μg/mL): could not
BTYR direct inhibition rate ([7]; 0.025–2.4 mM EGCG): < 50%
IC50 [8]: 1770 ± 20 µM
IC50 (MTYR (mushroom TYR) [9]; L-DOPA substrate): 1420 ± 61 µM
MTYR directly inhibitory activity relative to kojic acid (MTYR (mushroom TYR) [9]; ratio of IC50): 1/15
mRNA expression of BTYR in cells (BTYR mRNA): significantly inhibit

ATYR indirectly inhibitory activity [1]: 80 ± 0%
SMILES: OC[C@H]1O[C@@H](Oc2ccc(O)cc2)[C@H](O)[C@@H](O)[C@@H]1O [β-arbutin]
concentration significantly reducing melanin content of B16F10 cells in a dose-dependent manner (B16F10 cells [2]): 43.8 to 700 µM
IC50 (MTYR; read-out: IC50, diphenolase activity of MTYR): 8400 µM
Cell Viability (%) (B16F10 cells [5]; 25 µM): 108 ± 2%
Cell Viability (%) (B16F10 cells [5]; 50 µM): 115 ± 4%
Cell Viability (%) (B16F10 cells [5]; 100 µM): 125 ± 2%
Cell Viability (%) (B16F10 cells [5]; 200 µM): 138 ± 3%
Cell Viability (%) (B16F10 cells [5]; 400 µM): 171 ± 1%
Cell Viability (%) (B16F10 cells [5]; 600 µM): 195 ± 3%
Cell Viability (%) (B16F10 cells [5]; 800 µM): 206 ± 0%
Cell Viability (%) (B16F10 cells [5]; 1000 µM): 211 ± 1%
Cell Viability (%) (B16F10 cells [5]; 1200 µM): 222 ± 2%
promotion of ATYR activity (max) ([8]; 0.025–320 mM β-arbutin, direct): ≤ 21%

SMILES: OC[C@H]1O[C@H](Oc2ccc(O)cc2)[C@H](O)[C@@H](O)[C@@H]1O [α-arbutin]
effect on growth of HMV-II (HMV-II): did not inhibit the growth
inhibition of the diphenolase activity of MTYR (MTYR): could not inhibit

ATYR indirectly inhibitory activity [1]: −71 ± 4%
EC50 ([8]; low concentration (12.5–400 µM) of kojic acid, read-out: EC50, promotion of ATYR activity): 96 ± 4 µM
IC50 [8]: 2110 ± 20 µM
SMILES: O=c1cc(CO)occ1O [kojic acid]
concentration significantly reducing melanin content of B16F10 cells in a dose-dependent manner (B16F10 cells [2]): 175 to 700 µM
intracellular melanin content (B16F10 cells [4]): significantly reduce
viability at 48 h, 25 µM (Cell viability (CCK-8); 25 µM): 100 ± 4%
viability at 48 h, 50 µM (Cell viability (CCK-8); 50 µM): 101 ± 2%
viability at 48 h, 100 µM (Cell viability (CCK-8); 100 µM): 95 ± 1%
viability at 48 h, 200 µM (Cell viability (CCK-8); 200 µM): 90 ± 3%
viability at 48 h, 400 µM (Cell viability (CCK-8); 400 µM): 90 ± 3%
viability at 48 h, 600 µM (Cell viability (CCK-8); 600 µM): 96 ± 5%
viability at 48 h, 800 µM (Cell viability (CCK-8); 800 µM): 99 ± 4%
mRNA expression of BTYR in cells (BTYR mRNA): significantly inhibit

SMILES: Oc1ccc(O)cc1 [hydroquinone]
activity on HTYR relative to that on MTYR (HTYR): 1/4000
IC50 (HTYR; read-out: IC50 on HTYR): 4400 µM
IC50 (MTYR; read-out: IC50 on MTYR): 1.1 µM
